In US12054469B2, “Benzothiophene-based selective estrogen receptor downregulator compounds” (The Board of Trustees of the University of Illinois, priority 2015, dated 2024):

Columns and labels:
estrogen receptor = estrogen receptor (Homo sapiens (Human), UniProt P03372); assay: Western blot analysis of estrogen receptor downregulation; format: cell-based; details: 10 nM
Protocol: Whole-cell extracts of cultured cells were prepared in lysis buffer (200 mmol/L Tris, 1% Triton X-100, 5 mmol/L EDTA) with protease and phosphatase inhibitor cocktails (1:50, both from Sigma-Aldrich) after scraping from the culture plates. Protein concentration was measured using the Bradford method (Bio-Rad). Proteins were separated under denaturing conditions and blotted onto nitrocellulose membrane (Bio-Rad) using a wet transfer system (Bio-Rad). Images of blots were acquired on a Bio-Rad ChemiDoc System following incubation with SuperSignal West Dura luminol solution (Thermo Fisher Scientific).

MCF-7:WS8 cells = assay: Cell viability of MCF7:WS8, DNA content assay; format: cell-based, human
ERα = ERα (Homo sapiens (Human), UniProt P03372); assay: In-cell western (ICW) ER downregulation/degradation in MCF-7:WS8 cells; format: cell-based; details: Table 2; read-out: IC50 of ER downregulation from in-cell western blot experiments
MCF-7:TAM1 tumors = assay: MCF-7:TAM1 xenograft model of endocrine-resistant ER+ breast cancer; format: in vivo, mice; details: 100 mg/kg, oral gavage daily

estrogen receptor, sequence (P03372 whole entry): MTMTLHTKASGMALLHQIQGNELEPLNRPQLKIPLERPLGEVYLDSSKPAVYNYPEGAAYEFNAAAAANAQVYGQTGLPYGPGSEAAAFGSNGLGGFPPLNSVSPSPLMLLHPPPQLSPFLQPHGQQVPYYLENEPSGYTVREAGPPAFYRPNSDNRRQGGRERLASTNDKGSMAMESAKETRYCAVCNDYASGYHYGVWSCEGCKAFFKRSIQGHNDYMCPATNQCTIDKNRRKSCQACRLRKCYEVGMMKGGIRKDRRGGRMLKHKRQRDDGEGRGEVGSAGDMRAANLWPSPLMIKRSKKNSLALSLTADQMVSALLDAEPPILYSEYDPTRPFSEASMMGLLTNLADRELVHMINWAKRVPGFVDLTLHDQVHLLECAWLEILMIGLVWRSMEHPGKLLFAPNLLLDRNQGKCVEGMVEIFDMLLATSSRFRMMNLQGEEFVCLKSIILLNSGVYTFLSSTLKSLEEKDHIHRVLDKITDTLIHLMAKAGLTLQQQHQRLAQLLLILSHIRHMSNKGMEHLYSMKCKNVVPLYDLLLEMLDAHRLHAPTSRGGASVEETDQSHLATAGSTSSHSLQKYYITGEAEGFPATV
ERα, sequence (P03372 whole entry): as above

Row | Estrogen receptor downregulation (western blot) (estrogen receptor) | MCF-7WS8 IC50 (MCF-7:WS8 cells) | SMILES | further results
1 | downregulate the estrogen receptor |  | CCc1ccccc1C(=O)c1sc2cc(O)ccc2c1Oc1ccc(/C=C/C(=O)O)cc1 [Compound 3, (E)-3-(4-((2-(2-Ethylbenzoyl)-6-hydroxybenzo[b]thiophen-3-yl)oxy)phenyl) acrylic acid] | 
2 |  | No Inhiibition | O=C(O)/C=C/c1ccc(Oc2c(C(=O)c3ccc(O)cc3)sc3cc(O)ccc23)cc1 [Compound 2, (E)-3-(4-((6-Hydroxy-2-(4-hydroxybenzoyl)benzo[b]thiophen-3-yl)oxy)phenyl) acrylic acid] | 
3 | downregulate the estrogen receptor |  | Cc1ccc(F)cc1C(=O)c1sc2cc(O)ccc2c1Oc1ccc(/C=C/C(=O)O)cc1 [Compound 6] | 
4 | downregulate the estrogen receptor |  | Cc1cc(F)ccc1C(=O)c1sc2cc(O)ccc2c1Oc1ccc(/C=C/C(=O)O)cc1 [Compound 1, (E)-3-(4-((2-(4-Fluoro-2-methylbenzoyl)-6-hydroxybenzo[b]thiophen-3-yl)oxy)phenyl)acrylic acid] | 
5 |  | No Inhibition | Cc1cc(F)ccc1C(=O)c1sc2cc(O)ccc2c1Oc1ccc(NC(=O)C(=O)O)cc1 [Compound 18, 2-((4-((2-(4-Fluoro-2-methylbenzoyl)-6-hydroxybenzo[b]thiophen-3-yl)oxy)phenyl)amino)-2-oxoacetic acid] | 
6 |  | No inhibition | Cc1ccc(C(=O)c2sc3cc(O)ccc3c2Oc2ccc(NC(=O)C(=O)O)cc2)c(C)c1 [Compound 19, 2-((4-((2-(2,4-Dimethylbenzoyl)-6-hydroxybenzo[b]thiophen-3-yl)oxy)phenyl)amino)-2-oxoacetic acid] | 
7 | downregulate the estrogen receptor |  | Cc1ccccc1C(=O)c1sc2cc(O)ccc2c1Oc1ccc(/C=C/C(=O)O)cc1 [Compound 5, (E)-3-(4-((6-Hydroxy-2-(2-methylbenzoyl)benzo[b]thiophen-3-yl)oxy)phenyl) acrylic acid] | 
8 | downregulate the estrogen receptor |  | Cc1ccsc1C(=O)c1sc2cc(O)ccc2c1Oc1ccc(/C=C/C(=O)O)cc1 [Compound 7, (E)-3-(4-((6-Hydroxy-2-(3-methylthiophene-2-carbonyl)benzo[b]thiophen-3-yl)oxy)phenyl) acrylic acid] | IC50 (ERα): 4.6 nM
9 |  |  | CC/C(=C(\c1ccccc1)c1ccc(OCCN(C)C)cc1)c1ccccc1 [Tamoxifen, tamoxifen] | Effect on tumor (MCF-7:TAM1 tumors): entirely without effect
